Test results taken from PubChem BioAssay (NCI).
Values joined by “and” are separate entries in the source; they are usually repeats but may differ in a detail not shown here. Equal values may be shown once.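 Five compound concentrations were applied to cells in 96-well plates for 48 hours; endpoints were derived by simple linear interpolation of the resulting dose-response curve. The concentration for 50% growth inhibition is given as GI50. TGI denotes the concentration required for complete inhibition of growth.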

What was measured:
Experiment in all cases: growth of human tumour cells (NCI), 48 h
[1] = system: HCT-15 colon
[2] = system: SNB-75 CNS
[3] = system: KM12 colon
[4] = system: DU-145 prostate
[5] = system: OVCAR-3 ovarian
[6] = system: 786-0 renal
[7] = system: MCF7 breast
[8] = system: MDA-MB-231 breast
[9] = system: UACC-257 melanoma
[10] = system: CCRF-CEM leukemia

Structure (SMILES)	GI50 [1] [µM]	TGI [1] [µM]	GI50 [2] [nM]	GI50 [3]	TGI [3] [µM]	GI50 [4] [µM]	TGI [4]	GI50 [5]	TGI [5]	GI50 [6] [nM]	TGI [6]	GI50 [7]	TGI [7]	GI50 [8] [µM]	TGI [8]	GI50 [9] [µM]	TGI [9] [µM]	GI50 [10] [µM]	TGI [10] [µM]	TGI [2]
CCN1C(=O)N(CC)C2C1NN=c1s/c(=C\c3cccnc3)c(=O)n12 (centres undefined)	0.414	> 100	116	464 nM	> 100	0.412	> 48.7 µM	359 nM	8.53 µM	695	> 100 µM	333 nM	> 100 µM	3.57	> 95.3 µM	> 100	> 100	0.41	> 100	–
COc1c(CCC[P+](c2ccccc2)(c2ccccc2)c2ccccc2)cc2c(c1OC)OCO2	14.7	71.1	1300	643 nM	7.48	3.56	> 100 µM	629 nM	18 µM	3910	26.9 µM	1120 nM	10.7 µM	2.14	10.9 µM	0.312	4.38	1.7	> 100	5.18 µM
CC1SC(c2c(Cl)cccc2Cl)N(NC(=O)c2[nH]c3ccc(F)cc3c2-c2ccccc2)C1=O (centres undefined)	3.73	22.2	1430	3530 nM	20.9	1.92	4.36 µM	1760 nM	3.45 µM	2140	4.44 µM	3180 nM	11.5 µM	2.13	4.28 µM	4.69	44	4.79	42.5	3.27 µM
COc1cc(C2c3cc4c(cc3[C@@H](Nc3ccc(C#N)cc3)C3COC(=O)[C@H]23)OCO4)cc(OC)c1O (some centres undefined)	–	18	787	1130 nM and 1610 nM	–	–	1.17 µM and 6.87 µM	1810 nM and 2140 nM	50 µM and 5.33 µM and 5.32 µM	112	1.92 µM and 1.19 µM	329 nM and 188 nM	40.4 µM and 75 µM and > 100 µM	3.34	25.6 µM and > 100 µM	–	33.3	0.147	–	42.6 µM and 56.3 µM
O=C(CC(=O)CC(O)(C(F)(F)F)C(F)(F)F)CC(O)(C(F)(F)F)C(F)(F)F	–	> 10	–	–	> 10	–	> 10 µM	–	> 10 µM	–	> 10 µM	–	> 10 µM	–	> 10 µM	–	> 10	–	> 10	> 10 µM
Cc1ccc2c(ccc3c[n+]4c5ccccc5ccc4n32)c1	7.33	> 100	1180	340 nM	2.09	1.32	12.3 µM	459 nM	2.63 µM	2560	14.8 µM	2070 nM	8.49 µM	2.7	11.6 µM	1.43	3.82	2.46	10.6	8.05 µM
COc1ccc(N2C(C)=C(C#N)C34C(=O)N(c5ccccc5)C(=O)C3=C(O)C=CC24O)cc1 (centres undefined)	13.8	33.8	14800	10000 nM	26.6	10.5	26.8 µM	1760 nM	10.4 µM	19000	65.8 µM	10600 nM	34.9 µM	14.5	29.8 µM	30.1	> 100	3.09	15.6	44.5 µM
COC1(C(=O)N[C@@H](C)c2ccc(-n3cc(F)cn3)nc2)CCC(c2nc(C)cc(Nc3cc(C)[nH]n3)n2)CC1 (some centres undefined)	2.93	13.3	196	67.6 nM	18.2	1.8	4.63 µM	3130 nM	20.6 µM	1330	8 µM	1530 nM	14.6 µM	1.14	4.69 µM	10.9	26.5	11	> 100	0.848 µM
C[C@@H](C(=O)Nc1ccc(Cl)cc1)C1CCC(c2ccnc3ccc(F)cc23)CC1 (some centres undefined)	8.32	> 100	12500	6010 nM	34.9	12.6	> 100 µM	11900 nM	63.1 µM	4310	> 100 µM	4400 nM	97.5 µM	7.83	48 µM	13.3	53.7	3.43	> 100	92.3 µM
CCN(Cc1ccc(F)c(F)c1)c1ccc(CO)c(Cl)c1	6.63	25	2990	13900 nM	28.4	14.8	38.2 µM	395 nM	2.25 µM	5440	22.9 µM	195 nM	12.3 µM	12.8	26.6 µM	0.138	0.432	15.1	47	19.5 µM
CN1CCN(CCc2cccc(C(=O)c3cnn(-c4ccc(F)cc4)c3N)c2)CC1	> 25	> 25	> 25000	> 25000 nM	> 25	> 25	> 25 µM	> 25000 nM	> 25 µM	> 25000	> 25 µM	> 25000 nM	> 25 µM	> 25	> 25 µM	> 25	> 25	> 25	> 25	> 25 µM
CCCCOc1ccc(NC(N)=Nc2ccc(Cl)cc2)cc1	–	23.1	–	–	26.1	–	13.6 µM	–	22.7 µM	–	23.2 µM	–	4.2 µM	–	27.2 µM	–	5.21	–	> 35.7	15.3 µM
